Experimental data: ChEMBL document CHEMBL3885861, “Open TG-GATES”

Organism: Rattus norvegicus
Test: Open TG-GATES - Regimen: Daily Repeat
Type: toxicity, organism-based, Sprague-Dawley
Set-up: regimen Daily Repeat, gender Male, age 6 weeks
Details: in vivo, po, 20 mg/kg, route gavage, dose level Low; for APTT / Bas / Eos / Fbg / Hb / Ht / Lym / MCH / MCHC / MCV / Mono / Neu / PT / Plat / RBC / Ret / WBC: tissue Blood; for KIDNEY_L / KIDNEY_R / KIDNEY_TOTAL: tissue Kidney; for LIVER: tissue Liver; for A/G / ALP / ALT / AST / BUN / CRE / Ca / Cl / DBIL / GLC / IP / K / LDH / Na / PL / RALB / TBIL / TC / TG / TP / gamma-GTP: tissue Plasma

CCc1oc2ccccc2c1C(=O)c1cc(Br)c(O)c(Br)c1 [BENZBROMARONE]
TERMINAL_BW (72 h, time 3 day): 239.2 g
APTT (72 h, time 3 day): 16.2 s
Bas (72 h, time 3 day): 0%
Eos (72 h, time 3 day): 1%
Fbg (72 h, time 3 day): 233.6 mg/dL
Hb (72 h, time 3 day): 13.8 g/dL
Ht (72 h, time 3 day): 41%
Lym (72 h, time 3 day): 78.8%
MCH (72 h, time 3 day): 22.4 pg
MCHC (72 h, time 3 day): 33.7%
MCV (72 h, time 3 day): 66.3 fL
Mono (72 h, time 3 day): 7%
Neu (72 h, time 3 day): 13.2%
PT (72 h, time 3 day): 11.8 s
Plat (72 h, time 3 day): 112.4 x10_4/uL
RBC (72 h, time 3 day): 619.6 x10_4/ul
Ret (72 h, time 3 day): 7.4%
WBC (72 h, time 3 day): 116.5 x10_2/uL
KIDNEY_L (72 h, time 3 day): 1.1 g
KIDNEY_R (72 h, time 3 day): 1.1 g
KIDNEY_TOTAL (72 h, time 3 day): 2.2 g
LIVER (72 h, time 3 day): 12.8 g
A/G (72 h, time 3 day): 2.1
ALP (72 h, time 3 day): 818.8 IU/L
ALT (72 h, time 3 day): 31.2 IU/L
AST (72 h, time 3 day): 59.8 IU/L
BUN (72 h, time 3 day): 18.6 mg/dL
CRE (72 h, time 3 day): 0.6 mg/dL
Ca (72 h, time 3 day): 10.4 mg/dL
Cl (72 h, time 3 day): 105 meq/L
DBIL (72 h, time 3 day): 0.008 mg/dL
GLC (72 h, time 3 day): 189.2 mg/dL
IP (72 h, time 3 day): 7.7 mg/dL
K (72 h, time 3 day): 4.9 meq/L
LDH (72 h, time 3 day): 90.2 IU/L
Na (72 h, time 3 day): 139.5 meq/L
PL (72 h, time 3 day): 158.8 mg/dL
RALB (72 h, time 3 day): 4 g/dL
TBIL (72 h, time 3 day): 0.3 mg/dL
TC (72 h, time 3 day): 84.2 mg/dL
TG (72 h, time 3 day): 114.2 mg/dL
TP (72 h, time 3 day): 6 g/dL
gamma-GTP (72 h, time 3 day): 0.8 IU/L
TERMINAL_BW ([…], time 7 day): 269 g
TERMINAL_BW ([…], time 14 day): 309.9 g
TERMINAL_BW ([…], time 28 day): 378.9 g
APTT ([…], time 7 day): 16.8 s
Bas ([…], time 7 day): 0%
Eos ([…], time 7 day): 1%
Fbg ([…], time 7 day): 244.4 mg/dL
Hb ([…], time 7 day): 14.2 g/dL
Ht ([…], time 7 day): 42%
Lym ([…], time 7 day): 79.8%
MCH ([…], time 7 day): 21.2 pg
MCHC ([…], time 7 day): 33.9%
MCV ([…], time 7 day): 62.6 fL
Mono ([…], time 7 day): 5.8%
Neu ([…], time 7 day): 13.4%
PT ([…], time 7 day): 11.9 s
Plat ([…], time 7 day): 113.1 x10_4/uL
RBC ([…], time 7 day): 670.8 x10_4/ul
Ret ([…], time 7 day): 5.9%
WBC ([…], time 7 day): 102 x10_2/uL
APTT ([…], time 14 day): 16.5 s
Bas ([…], time 14 day): 0%
Eos ([…], time 14 day): 1%
Fbg ([…], time 14 day): 228.8 mg/dL
Hb ([…], time 14 day): 14.4 g/dL
Ht ([…], time 14 day): 43.4%
Lym ([…], time 14 day): 81.4%
MCH ([…], time 14 day): 20.8 pg
MCHC ([…], time 14 day): 33.3%
MCV ([…], time 14 day): 62.5 fL
Mono ([…], time 14 day): 6.2%
Neu ([…], time 14 day): 11.2%
PT ([…], time 14 day): 11.7 s
Plat ([…], time 14 day): 104.8 x10_4/uL
RBC ([…], time 14 day): 694.6 x10_4/ul
Ret ([…], time 14 day): 4.4%
WBC ([…], time 14 day): 128.4 x10_2/uL
APTT ([…], time 28 day): 16.9 s
Bas ([…], time 28 day): 0%
Eos ([…], time 28 day): 1.4%
Fbg ([…], time 28 day): 223.4 mg/dL
Hb ([…], time 28 day): 15.4 g/dL
Ht ([…], time 28 day): 45.8%
Lym ([…], time 28 day): 85.4%
MCH ([…], time 28 day): 19.3 pg
MCHC ([…], time 28 day): 33.6%
MCV ([…], time 28 day): 57.6 fL
Mono ([…], time 28 day): 4.6%
Neu ([…], time 28 day): 8.6%
PT ([…], time 28 day): 12.1 s
Plat ([…], time 28 day): 101.2 x10_4/uL
RBC ([…], time 28 day): 795.8 x10_4/ul
Ret ([…], time 28 day): 2.8%
WBC ([…], time 28 day): 139.2 x10_2/uL
KIDNEY_L ([…], time 7 day): 1.2 g
KIDNEY_R ([…], time 7 day): 1.2 g
KIDNEY_TOTAL ([…], time 7 day): 2.4 g
KIDNEY_L ([…], time 14 day): 1.2 g
KIDNEY_R ([…], time 14 day): 1.3 g
KIDNEY_TOTAL ([…], time 14 day): 2.5 g
KIDNEY_L ([…], time 28 day): 1.5 g
KIDNEY_R ([…], time 28 day): 1.5 g
KIDNEY_TOTAL ([…], time 28 day): 2.9 g
LIVER ([…], time 7 day): 14.3 g
LIVER ([…], time 14 day): 15.3 g
LIVER ([…], time 28 day): 17.3 g
A/G ([…], time 7 day): 1.9
ALP ([…], time 7 day): 819.4 IU/L
ALT ([…], time 7 day): 34.6 IU/L
AST ([…], time 7 day): 61.8 IU/L
BUN ([…], time 7 day): 20 mg/dL
CRE ([…], time 7 day): 0.6 mg/dL
Ca ([…], time 7 day): 10.4 mg/dL
Cl ([…], time 7 day): 107.9 meq/L
DBIL ([…], time 7 day): 0.008 mg/dL
GLC ([…], time 7 day): 187.8 mg/dL
IP ([…], time 7 day): 7.9 mg/dL
K ([…], time 7 day): 4.9 meq/L
LDH ([…], time 7 day): 92 IU/L
Na ([…], time 7 day): 138.5 meq/L
PL ([…], time 7 day): 163.8 mg/dL
RALB ([…], time 7 day): 4 g/dL
TBIL ([…], time 7 day): 0.3 mg/dL
TC ([…], time 7 day): 82 mg/dL
TG ([…], time 7 day): 139.6 mg/dL
TP ([…], time 7 day): 6.2 g/dL
gamma-GTP ([…], time 7 day): 1 IU/L
A/G ([…], time 14 day): 1.8
ALP ([…], time 14 day): 708.6 IU/L
ALT ([…], time 14 day): 29.4 IU/L
AST ([…], time 14 day): 57.2 IU/L
BUN ([…], time 14 day): 19.6 mg/dL
CRE ([…], time 14 day): 0.6 mg/dL
Ca ([…], time 14 day): 10.4 mg/dL
Cl ([…], time 14 day): 107.5 meq/L
DBIL ([…], time 14 day): 0.002 mg/dL
GLC ([…], time 14 day): 191.8 mg/dL
IP ([…], time 14 day): 7.2 mg/dL
K ([…], time 14 day): 4.8 meq/L
LDH ([…], time 14 day): 88 IU/L
Na ([…], time 14 day): 140.3 meq/L
PL ([…], time 14 day): 168.2 mg/dL
RALB ([…], time 14 day): 4.1 g/dL
TBIL ([…], time 14 day): 0.3 mg/dL
TC ([…], time 14 day): 86 mg/dL
TG ([…], time 14 day): 139.4 mg/dL
TP ([…], time 14 day): 6.3 g/dL
gamma-GTP ([…], time 14 day): 2 IU/L
A/G ([…], time 28 day): 2
ALP ([…], time 28 day): 589.8 IU/L
ALT ([…], time 28 day): 30.6 IU/L
AST ([…], time 28 day): 57.4 IU/L
BUN ([…], time 28 day): 20.6 mg/dL
CRE ([…], time 28 day): 0.5 mg/dL
Ca ([…], time 28 day): 9.9 mg/dL
Cl ([…], time 28 day): 107.3 meq/L
DBIL ([…], time 28 day): 0.008 mg/dL
GLC ([…], time 28 day): 192 mg/dL
IP ([…], time 28 day): 6.6 mg/dL
K ([…], time 28 day): 4.4 meq/L
LDH ([…], time 28 day): 92.2 IU/L
Na ([…], time 28 day): 140.6 meq/L
PL ([…], time 28 day): 154.4 mg/dL
RALB ([…], time 28 day): 4.2 g/dL
TBIL ([…], time 28 day): 0.3 mg/dL
TC ([…], time 28 day): 75.6 mg/dL
TG ([…], time 28 day): 140 mg/dL
TP ([…], time 28 day): 6.4 g/dL
gamma-GTP ([…], time 28 day): 1.8 IU/L
